Results on 13 compounds are retold here after patent US10450335B2, “Antiviral oxime phosphoramide compounds” (Merck Sharp & Dohme Corp., priority 2015, dated 2019).

The subject of one series is HIV-1 (H9/IIIB strain). In words: Viking assay: antiviral potency in a multiple round HIV-1 infection assay in MT4-GFP cells. Conditions: MT4-GFP cells infected with HIV-1 H9/IIIB, inhibition of reproductive ratio R0. In kind it is cell-based. As for the experimental part:
Assessing Antiviral Potency in a Multiple Round HIV-1 Infection Assay (Viking Assay)
The antiviral activity of the tenofovir prodrugs of the Examples herein was assessed in an assay that measures the rate of replication of HIV in cell culture, termed the Viking assay (VIral KINetics in Green cells) and performed as follows. HIV-1 replication was monitored using MT4-gag-GFP clone D3 (hereafter designated MT4-GFP), which are MT-4 cells modified to harbor a GFP reporter gene, the expression of which is dependent on the HIV-1 expressed proteins tat and rev. Productive infection of an MT4-GFP cell with HIV-1 results in GFP expression approximately 24 h post-infection. MT4-GFP cells were maintained at 37° C./5% CO2/90% relative humidity in RPMI 1640 supplemented with 10% fetal bovine serum, 100 U/ml penicillin/streptomycin, and 400 μg/ml G418 to maintain the reporter gene. For infections, MT4-GFP cells were placed in the same medium lacking G418 and infected overnight with HIV-1 (H9/IIIB strain) virus at an approximate multiplicity of infection of 0.01 in the same incubation conditions. Cells were then washed and re-suspended in either RPMI 1640 supplemented with 10% or 50% normal human serum (NHS) at 1.6×10^5 cells/mL (10% NHS or 50% NHS, respectively). Compound plates were prepared by dispensing compounds dissolved in DMSO into wells of 384 well poly-D-lysine-coated plates (0.2 μl/well) using an ECHO acoustic dispenser. Each compound was tested in a 10-point serial 3-fold dilution (typical final concentrations: 8.4 μM-0.42 nM). Controls included no inhibitor (DMSO only) and a combination of three antiviral agents (efavirenz, indinavir, an in-house integrase strand transfer inhibitor at final concentrations of 4 μM each). Cells were added (50 μL/well) to compound plates and the infected cells were maintained at 37° C./5% CO2/90% relative humidity.
Infected cells were quantified at two time points, ˜48 h and ˜72 h post-infection, by counting the number of green cells in each well using an Acumen eX3 scanner. The increase in the number of green cells over ˜24 h period gives the reproductive ratio, R0, which is typically 5-15 and has been shown experimentally to be in logarithmic phase (data not shown). Inhibition of R0 is calculated for each well, and IC50s determined by non-linear 4-parameter curve fitting.

Series [1] in a line: Prodrug stability assay in bio-relevant media (FaSSIF with Pancreatin, GI tract stability). The series is classed as in vitro ADME. Conditions: HPLC peak area of prodrug at 5 h / 0 h, 0.5 mg/mL Pancreatin in FaSSIF, 37° C. As for the experimental part:
Prodrug Stability Assay in Bio-Relevant Media
The following assay was employed to evaluate the stability of the prodrugs in simulated gastrointestinal tract conditions. Preparation of fasted state simulated intestinal fluid (FaSSIF) using Phares SIF Powder was carried out according to protocols from Phare Drug Delivery AG (Baselland, Switzerland). For sample preparation, 10 μL stock solutions (10 mM) of prodrug substance in DMSO was added to 990 μL of 0.5 mg/mL Pancreatin solution (Fisher CAS#8049-47-6) in FaSSIF. Two samples were prepared for each compound. If the sample was a clear solution, it was directly analyzed by HPLC. If the sample was not clear, the sample was […] at 37° C. and observed 5 h later. If the sample was clear, HPLC analysis was directly performed. If the sample was still not clear, the sample was diluted with 100% ACN and assayed by HPLC. All the samples were vortexed for 3 min and observed before injection. For the diluted samples, the area is multiplied by a dilution factor when the data is analyzed. The analysis was carried out with an Agilent 1100 series HPLC with autosampler. The column was a Poroshell 120 EC-C18, 4.6×50 mm, […]. The flow rate was 1.8 mL/min, and the injection volume was 5 or 10 μL. UV detection was in the range 210-400 nm. The mobile phase consisted of solvent A (water plus 10 mM tetrabutylammonium bromide) and solvent B (acetonitrile) with a gradient of: 90% solvent A at 0 min, changing to 95% solvent B over 6 min, maintaining for 1.5 min, then reverting to 90% solvent A over 1.6 min. The HPLC peak area of the prodrug at 5 h was divided by the HPLC peak area of the prodrug at 0 h, to generate the % claimed parent ratio, which is summarized in Table 2 for gastrointestinal (GI) Tract stability.

The mark [2] stands for this setting: Human immunodeficiency virus 1, IIIB, 10% normal human serum, read-out: Viking, IC50 (10% NHS).
Setting [3] is: Human immunodeficiency virus 1, IIIB, 50% normal human serum, read-out: Viking, IC50 (50% NHS).

Read-outs that look alike come from different tables or passages of the source.

For the compound `CC(C)OC(=O)[C@H](C)NP(=O)(CO[C@H](C)Cn1cnc2c(N)ncnc21)ON=C1CCOCC1` (stereo partly drawn) [Example 9, isopropyl (((((R)-1-(6-amino-9H-purin-9-yl)propan-2-yl)oxy)methyl)(((tetrahydro-4H-pyran-4-ylidene)amino)oxy)phosphoryl)-L-alaninate], the IC50 with HIV-1 (H9/IIIB strain) (setting [2]) came out at 165 nM; in the series with HIV-1 (H9/IIIB strain) (setting [3]) it was 360 nM.
As for `CC(C)CC(CC(C)C)=NOP(=O)(CO[C@H](C)Cn1cnc2c(N)ncnc21)NC(C)(C)C(=O)OC1CCC1` (mixture of isomers) [Example 32, cyclobutyl 2-(((R)-((((R)-1-(6-amino-9H-purin-9-yl)propan-2-yl)oxy)methyl)(((2,6-dimethylheptan-4-ylidene)amino)oxy)phosphoryl)amino)-2-methylpropanoate; and cyclobutyl 2-(((S)-((((R)-1-(6-amino-9H-purin-9-yl)propan-2-yl)oxy)methyl)(((2,6-dimethylheptan-4-ylidene)amino)oxy)phosphoryl)amino)-2-methylpropanoate], the “GI Tract stability” value in series [1] is 5.6%.
As to `CC(C)=NOP(=O)(CO[C@H](C)Cn1cnc2c(N)ncnc21)N[C@@H](C)C(=O)OCc1ccccc1` (stereo partly drawn) [Example 5, benzyl (((R)-(((R)-1-(6-amino-9H-purin-9-yl)propan-2-yl)oxy)methyl)((propan-2-ylideneamino)oxy)phosphoryl)-L-alaninate; and benzyl (((S)-(((R)-1-(6-amino-9H-purin-9-yl)propan-2-yl)oxy)methyl)((propan-2-ylideneamino)oxy)phosphoryl)-L-alaninate], the IC50 is 21.3 nM in the series with HIV-1 (H9/IIIB strain) (setting [2]); 115 nM in the series with HIV-1 (H9/IIIB strain) (setting [3]); 15.2 nM in the series with HIV-1 (H9/IIIB strain) (10% normal human serum, read-out: Viking, IC50 (10% NHS)); 67 nM with HIV-1 (H9/IIIB strain) (50% normal human serum, read-out: Viking, IC50 (50% NHS)).
For the compound `CC(C)OC(=O)C(C)(C)NP(=O)(CO[C@H](C)Cn1cnc2c(N)ncnc21)ON=C1CCCC1` (mixture of isomers) [Example 27, isopropyl 2-(((R)-((((R)-1-(6-amino-9H-purin-9-yl)propan-2-yl)oxy)methyl)((cyclopentylideneamino)oxy)phosphoryl)amino)-2-methylpropanoate; and isopropyl 2-(((S)-((((R)-1-(6-amino-9H-purin-9-yl)propan-2-yl)oxy)methyl)((cyclopentylideneamino)oxy)phosphoryl)amino)-2-methylpropanoate], the “GI Tract stability” value in series [1] turned out to be 99.3%.
As to `CC(C)CC(CC(C)C)=NOP(=O)(CO[C@H](C)Cn1cnc2c(N)ncnc21)N[C@@H](C)C(=O)OC(C)C` (stereo partly drawn) [Example 12, isopropyl (((R)-(((R)-1-(6-amino-9H-purin-9-yl)propan-2-yl)oxy)methyl)(((2,6-dimethylheptan-4-ylidene)amino)oxy)phosphoryl)-L-alaninate; and isopropyl (((S)-(((R)-1-(6-amino-9H-purin-9-yl)propan-2-yl)oxy)methyl)(((2,6-dimethylheptan-4-ylidene)amino)oxy)phosphoryl)-L-alaninate], the “GI Tract stability” value in series [1] is 17.6%.
With “butyl 2-(((R)-((((R)-1-(6-amino-9H- purin-9-yl)propan-2- yl)oxy)methyl)((propan-2- ylideneamino)oxy)phosphoryl)amino)- 2-methylpropanoate; and butyl 2-(((S)-((((R)-1-(6-amino-9H- purin-9-yl)propan-2- yl)oxy)methyl)((propan-2- ylideneamino)oxy)phosphoryl)amino)- 2-methylpropanoate [Example 23]”, the “GI Tract stability” value in series [1] was 99.0%.
The same measure, in the same setting: under `C/C(=N\OP(=O)(CO[C@H](C)Cn1cnc2c(N)ncnc21)N[C@@H](C)C(=O)OC(C)C)C1CCCCC1` (stereo partly drawn) [Example 15, isopropyl (((R)-(((R)-1-(6-amino-9H-purin-9-yl)propan-2-yl)oxy)methyl)((((E)-1-cyclohexylethylidene)amino)oxy)phosphoryl)-L-alaninate; and isopropyl (((S)-(((R)-1-(6-amino-9H-purin-9-yl)propan-2-yl)oxy)methyl)((((E)-1-cyclohexylethylidene)amino)oxy)phosphoryl)-L-alaninate] stands 33.4%.
Take `CCC(CC)=NOP(=O)(CO[C@H](C)Cn1cnc2c(N)ncnc21)N[C@@H](C)C(=O)OC(C)C` (stereo partly drawn) [Example 7, isopropyl (((((R)-1-(6-amino-9H-purin-9-yl)propan-2-yl)oxy)methyl)((pentan-3-ylideneamino)oxy)phosphoryl)-L-alaninate]: the results for the IC50 with HIV-1 (H9/IIIB strain) (setting [2]) and in the series with HIV-1 (H9/IIIB strain) (setting [3]) were 28.2 nM and 84.7 nM, respectively.
For the compound `CC(C)OC(=O)[C@H](C)NP(=O)(CO[C@H](C)Cn1cnc2c(N)ncnc21)ON=C1CCCCC1` (stereo partly drawn) [Example 8, isopropyl (((((R)-1-(6-amino-9H-purin-9-yl)propan-2-yl)oxy)methyl)((cyclohexylideneamino)oxy)phosphoryl)-L-alaninate], the IC50 in the series on HIV-1 (H9/IIIB strain) (setting [2]) is 67.7 nM; with HIV-1 (H9/IIIB strain) (setting [3]), 92.1 nM.
As for `CC(C)OC(=O)[C@H](C)NP(=O)(CO[C@H](C)Cn1cnc2c(N)ncnc21)ON=C(c1ccccc1)c1ccccc1` (stereo partly drawn) [Example 14, isopropyl (((((R)-1-(6-amino-9H-purin-9-yl)propan-2-yl)oxy)methyl)(((diphenylmethylene)amino)oxy)phosphoryl)-L-alaninate], the IC50 in the series with HIV-1 (H9/IIIB strain) (setting [2]) is 18.6 nM; in the series on HIV-1 (H9/IIIB strain) (setting [3]), 169 nM.
`CC(C)OC(=O)[C@H](C)NP(=O)(CO[C@H](C)Cn1cnc2c(N)ncnc21)ON=C(C1CCCC1)C1CCCC1` (stereo partly drawn) [Example 6, isopropyl (((((R)-1-(6-amino-9H-purin-9-yl)propan-2-yl)oxy)methyl)(((dicyclopentylmethyl-ene)amino)oxy)phosphoryl)-L-alaninate]: the IC50 is 24.3 nM in the series with HIV-1 (H9/IIIB strain) (setting [2]) and 51.3 nM in the series on HIV-1 (H9/IIIB strain) (setting [3]).
Regarding `C/C(=N\OP(=O)(CO[C@H](C)Cn1cnc2c(N)ncnc21)N[C@@H](C)C(=O)OC(C)C)c1ccncc1` (stereo partly drawn) [Example 16, isopropyl (((R)-(((R)-1-(6-amino-9H-purin-9-yl)propan-2-yl)oxy)methyl)((((E)-1-(pyridin-4-yl)ethylidene)amino)oxy)phosphoryl)-L-alaninate and isopropyl; and (((S)-(((R)-1-(6-amino-9H-purin-9-yl)propan-2-yl)oxy)methyl)((((E)-1-(pyridin-4-yl)ethylidene)amino)oxy)phosphoryl)-L-alaninate], the IC50 in the series with HIV-1 (H9/IIIB strain) (setting [2]) worked out at 780 nM; in the series with HIV-1 (H9/IIIB strain) (setting [3]), 1140 nM.
For `CC(C)OC(=O)[C@H](C)NP(=O)(CO[C@H](C)Cn1cnc2c(N)ncnc21)ON=C1CCN(Cc2ccccc2)CC1` (stereo partly drawn) [Example 11, isopropyl (((((R)-1-(6-amino-9H-purin-9-yl)propan-2-yl)oxy)methyl)(((1-benzylpiperidin-4-ylidene)amino)oxy)phosphoryl)-L-alaninate] the same measures were 14.8 nM and 51.7 nM.

In general, IC50 refers to the concentration at which inhibition is half-maximal.
